In patent publication US6869961B2, “Store operated calcium influx inhibitors and methods of use” (Cellegy Pharmaceuticals, Inc., priority 2001, dated 2005):

Assays:
IL-2 [1] = experiment: IL-2 release from Jurkat cells (PMA and ionomycin, ELISA); type: cell-based, human; settings: for IC50: Homo sapiens, Jurkat, Table III, 'the foregoing assay' of Example 2
Protocol: Since NFAT plays a critical role in IL-2 and TNFα gene transcription, the effects of the novel compounds on IL-2 and TNFα secretion from stimulated lymphoid cells were also investigated. Jurkat cells, in standard medium, were seeded into 24-well dishes at 1 million cells per well and were treated as follows: […], then stimulated with 20 ng/mL PMA and 1 μg/mL ionomycin for 5 hours. Following centrifugation, the supernatants were analyzed for IL-2 content by ELISA using a standard protocol.

NFAT = experiment: NFAT-regulated luciferase reporter assay in Jurkat cells; type: cell-based, human; settings: for inhibition of NFAT activity: NFAT reporter assay, Jurkat cells
Protocol: The biological activity of column fractions and crystalline material was assessed in the NFAT activation assay using Jurkat cells stably transfected with NFAT-regulated luciferase reporter (see, FIGS. 9-14).
Jurkat cells, in standard medium, were seeded in 24-well dishes at 1 million cells per well and treated as follows. […] The cells were harvested 5 hours later and luciferase activity was measured in a luminometer.

IFN-gamma = IFN-gamma production from Jurkat cells; type: cell-based, human
[2] = test system: oxazolone-induced contact hypersensitivity response; settings: mouse, FIG. 6
IL-2 [3] = experiment: PBMC IL-2 release; type: cell-based; settings: FIG. 3
NF-κB = NF-κB luciferase reporter in Jurkat T cells; type: cell-based, human; settings: 20 μg/ml, 5 hr
Protocol: The next day, cells were preincubated with lovastatin (20 μg/ml) or vehicle control for 15 min, and then stimulated with PMA (20 ng/ml), ionomycin (1 μg/ml), or PMA+ionomycin for 5 hr. The cells were harvested, lysed, and lysates assayed for firefly luciferase and Renilla luciferase activity measured in a luminometer.

IL-8 = IL-8 production from Jurkat cells; type: cell-based, human
TNBS-induced colitis = experiment: Rat TNBS-induced colitis model; type: in vivo; settings: 50 mg/kg/day intracolonically, two weeks, day 14
Excerpt: Human inflammatory bowel disease (IBD) is a chronic relapsing and remitting disease of unknown etiology that affects individuals of both sexes throughout life. The factors contributing to the two main forms of the disease, Crohn's disease and ulcerative colitis, are complex and probably involve abnormal immune responses and commensal intestinal microflora. A number of experimental models of intestinal inflammation have been developed, including those based on intracolonic instillation of 2,4,6-trinitrobenzene sulfonic acid (TNBS). TNBS-induced colitis shares many of the histopathological and clinical features of Crohn's disease, i.e. it is to some extent immune-mediated, produces long lasting ulcerative damage and thickening of the bowel wall, granulocyte and mononuclear cell infiltration and granuloma formation, and transmural inflammation of the mucosa, (Morris et al., Gastroenterology 96:795-803, 1989). This model has been widely used to evaluate potential treatments for colonic inflammation.
In the present study, the local anti-inflammatory effects of lovastatin were assessed in the rat TNBS-induced colitis model. Colitis was induced in male Wistar rats weighing 175-225 g by intracolonic instillation of the hapten TNBS (60 mg/ml) in 0.5 ml of 50% ethanol. Groups of 8 rats received the lovastatin formulation prepared in Example 11 (50 mg/kg/day), a positive control, budesonide (2.5 mg/kg/day), or vehicle (0.5% sodium carboxymethylcellulose) intracolonically 1 hour after induction of colitis, and at 12 h intervals thereafter for two weeks. The rats received 0.5 ml of test drug or vehicle at each dosing. On day 14 after induction of colitis, the animals were euthanized and the distal colon was removed and pinned out on a wax platform. The presence or absence of diarrhea was noted, as was the presence and severity of adhesions between the colon and other organs. The severity of colonic damage was scored using the criteria described in Appleyard and Wallace, Am. J. Physiol. 269 (Gastrointest.Liver Physiol. 32): G119-G125, 1995. […]

JNK = JNK phosphorylation in Jurkat T cells (Western blot); type: cell-based, human; parameters: dose or concentration left out as unconfirmed; settings: lovastatin
Excerpt: Cells were harvested, lysates prepared, and proteins Western blotted using antibodies directed against JNK or phospho-JNK (Thr183/Thr185).

TNF-alpha = experiment: PBMC TNF-alpha release; type: cell-based; settings: FIG. 4
[4] = test system: rat basophilic leukemia (2H3) cells; experiment: 5-HT release from rat basophilic leukemia (2H3) cells; type: cell-based; settings: FIG. 5
Crohn's disease = experiment: Maintenance therapy of Crohn's disease in remission; type: in vivo, human; settings: Crohn's disease subjects in remission
Excerpt: Remission is defined as no need for oral prednisone and presence of a score of 150 or less on the Crohn's Disease Activity Index. This index incorporates eight items: the number of liquid or very soft stools in the seven days preceding the assessment, the severity of abdominal pain, general well-being, the presence or absence of an abdominal mass or extra-intestinal manifestation of the disease, the use of opiates to treat diarrhea, hematocrit, and weight. Scores in this index can range from 0 to approximately 600. Higher scores indicate greater disease activity.
Upon reaching remission, the subject takes lovastatin orally (Mevacor, 20-1000 mg) every day, in addition to one or more of the following: controlled release lovastatin tablet(s) targeting specific disease sites, lovastatin enema(s), or lovastatin rectal suppositories on a regular basis. On average, 50-60% of Crohn's disease subjects in remission relapse in 40 weeks.

Work on `O=C1C[C@H](O)C[C@H](CCc2ccccc2)O1` yielded an IC50 (IL-2 [1]) of 300 µM.
In the case of `O=C1C[C@@H](O)C[C@H](CCc2ccccc2)O1`, the IC50 (IL-2 [1]) is reported as 150 µM.
With `O=C1CCCC(CCc2ccccc2)O1` (stereo not shown) the IC50 (IL-2 [1]) was greater than 50 µM.
With `O=C1C=CCC(CCc2ccccc2)O1` (stereo not shown) the IC50 (IL-2 [1]) was 5 µM.
With `O=C1CCC(CCc2ccccc2)O1` (stereo not shown) the IC50 (IL-2 [1]) was greater than 50 µM.
`O=C1C=CC(CCc2ccccc2)O1` (stereo not shown) gave an IC50 (IL-2 [1]) of 15 µM.
Work on `O=C1C=C(CCc2ccccc2)CO1` yielded an IC50 (IL-2 [1]) greater than 50 µM.
Work on `CCOC(=O)/C=C/C=C/CCc1ccccc1` yielded an IC50 (IL-2 [1]) of 12 to 40 µM.
`CCOC(=O)/C=C/C=C/C=C/c1ccccc1` showed an IC50 (IL-2 [1]) of 4 to 12 µM.
For `CN1C(=O)N(c2cc(Cl)cc(Cl)c2)C(=O)C1(C)Cc1ccc(Br)cc1` (single isomer, unassigned) [BIRT377 less active enantiomer], the “inhibition of NFAT activity” value (NFAT) was “very weak NFAT inhibitory activity”.
`CN1C(=O)N(c2cc(Cl)cc(Cl)c2)C(=O)[C@@]1(C)Cc1ccc(Br)cc1` [BIRT377] was tested, and the “inhibition of NFAT activity” value (NFAT) was “very weak NFAT inhibitory activity”.
With `COC(=O)/C=C/C=C/C=C/c1c(-c2ccc(F)cc2)c2ccccc2n1C(C)C` [Compound 1079-76-3C] the “IL-2 release by PMA and ionomycin in Jurkat cells” value (IL-2 [1]; 5.0 μg/mL, 30 min pre-incubation, 5 hours) was “inhibit”, the “inhibition of TG+PMA-induced NFAT activity” value (NFAT; 5 μg/mL, 0.3 μM TG + 20 ng/mL PMA, 5 hours) was “approximately 85%” and the “expression of NFAT-regulated reporter gene” value (NFAT; Jurkat cells stimulated with ionomycin + PMA or thapsigargin + PMA) was “inhibited”.
With `CC[C@H](C)C(=O)O[C@H]1C[C@H](O)C=C2C=C[C@H](C)[C@H](CC[C@@H](O)C[C@@H](O)CC(=O)O)[C@H]21` [Pravastatin, pravastatin] the “inhibition of NFAT activity” value (NFAT) was “inactive”.
With `CC(C)c1c(C(=O)Nc2ccccc2)c(-c2ccccc2)c(-c2ccc(F)cc2)n1CC[C@@H](O)C[C@@H](O)CC(=O)O` [atorvastatin] the “inhibition of NFAT activity” value (NFAT) was “inactive”.
`COC(=O)/C=C/C=C/C=C/c1c(-c2ccc(F)cc2)c2ccccc2n1C(C)C` [drawing 85] was tested, and the IC50 (IL-2 [1]) was 3 µM.
`CC(C)n1c(/C=C/C(O)CC(O)CC(=O)O)c(-c2ccc(F)cc2)c2ccccc21` (stereo not shown) [fluvastatin] was tested, and the “inhibition of NFAT activity” value (NFAT) was “inactive”.
`CC[C@H](C)C(=O)O[C@H]1C[C@@H](C)C=C2C=C[C@H](C)[C@H](CC[C@@H]3C[C@@H](O)CC(=O)O3)[C@H]21` [lovastatin] was tested, and the “inhibition of IFN-gamma production” value (IFN-gamma) was “inhibition”, the “inhibition of oxazolone-induced contact hypersensitivity response” value [2] was “inhibition” and the “inhibition of Jurkat IL-2 release” value (IL-2 [1]; FIG. 2) was “inhibition”. The “inhibition of PBMC IL-2 release” value (IL-2 [3]) was “inhibition”, the “inhibition of NFAT activity” value (NFAT) was “able to inhibit” and the “calcium-dependent NF-κB activation (ionomycin synergy with PMA)” value (NF-κB) was “strongly inhibits”. For the same molecule, the “inhibition of IL-8 production” value (IL-8) was “inhibition”, the “colonic MPO activity” value (TNBS-induced colitis) was “reduced” and the colonic damage score (TNBS-induced colitis) was “significant (p<0.05) reduction”. For the same molecule, the global colitis score (TNBS-induced colitis) was “significant (p<0.05) reduction”, the “PMA-induced JNK phosphorylation” value (JNK) was “little effect” and the “JNK phosphorylation induced by PMA+ionomycin” value (JNK; 15 min pre-incubation, 30 min stimulation) was “inhibits”. The “inhibition of PBMC TNF-alpha release” value (TNF-alpha) was “inhibition”, the “inhibition of 5-hydroxytryptomine (5-HT) release” value [4] was “inhibition” and the disease activity (Crohn's disease) was “less severe”. For the same molecule, the “remission time between relapse” value (Crohn's disease; oral 20-1000 mg every day plus local forms) was “longer”.
For `CCC(C)C(=O)OC1CCC=C2C=CC(C)C(CCC(O)CC(O)CC(=O)O)C21` (stereo not shown) [mevastatin open chain form], the “inhibition of NFAT activity” value (NFAT) was “only the lactone form was active”.
With `CC[C@H](C)C(=O)O[C@H]1CCC=C2C=C[C@H](C)[C@H](CC[C@@H]3C[C@@H](O)CC(=O)O3)[C@H]21` [mevastatin] the “inhibition of NFAT activity” value (NFAT) was “able to inhibit” and the “inhibition of NFAT activity” value (NFAT; listed as mevastatin lactone form) was “active”.
